Source: patent US20180343865A1, “HERBICIDAL COMPOSITIONS COMPRISING ISOXAZOLO[5,4-B]PYRIDINES” (BASF SE, priority 2015, published 2018)

Columns and labels:
Assay type in all cases: in vivo
Abutilon theoprasti = assay: Greenhouse postemergence herbicidal activity on ABUTH, 20 DAT
Experimental: (§1) For the post emergence treatment, the plants were first grown to the 2 leaf station (GS 12) and applied at GS 12-19 depending on the species. The herbicidal compositions were suspended or emulsified in water as distribution medium and sprayed using finely distributing nozzles.
(§2) The plants have been cultivated due to their individual requirements at 10 to 25° C. and. 20 to 35° C. The plants were irrigated due to their necessity.
(§3) The respective stated components A), were formulated as a 5% by weight strength emulsion concentrate containing wettol EM 31 20% and Cyclohexanone 80%. The respective stated components B), were formulated as either emulsifiable concentrates (EC), soluble liquids (SL), suspension concentrates (SC) or soluble granules (SG) as indicated in the table below. Component A, component B and the solvent system are introduced into the spray liquor used for applying the active compound. In the examples, the solvent used was water containing 1% Dash (Agnique ME 181 37.5%, Lutensit A-EP 22.5%, and Oleic Acid 5%) and 2% ammonium suflate.
(§4) In the following experiments, the herbicidal activity for the individual herbicide compounds (solo and mixture applications), the herbicidal succession was assessed 20 days after treatment (DAT). The evaluation for the damage on undesired weeds caused by the chemical compositions was carried out using a scale from 0 to 100%, compared to the untreated control plants. Here, 0 means no damage and 100 means complete destruction of the plants. The plants used in the greenhouse experiments belonged to the following species:
(§5) The value E, which corresponds to the effect (in %) that is to be expected if the activity of the individual compounds is additive, was calculated using the method of S. R. Colby (1967) “Calculating synergistic and antagonistic responses of herbicide combinations”, Weeds 15, p. 22 ff. Colby calculation for 2 way mixtures:
(§6) where: • X=effect in percent using herbicide A at an application rate a; • Y=effect in percent using herbicide B at an application rate b; • E=expected effect (in %) of A+B at application rates a+b
(§7) If the value observed in this manner is higher than the value E calculated according to Colby, a synergistic effect is present.

Amaranthus retroflexus = assay: Greenhouse postemergence herbicidal activity on AMARE, 20 DAT; conditions: AMARE, postemergence
Experimental: as §1, §2, §3, §4, §5, §6, §7

Chenopodium album = assay: Greenhouse postemergence herbicidal activity on CHEAL, 20 DAT
Experimental: as §1, §2, §3, §4, §5, §6, §7

Ipomoea hederacea = assay: Greenhouse postemergence herbicidal activity on IPOHE, 20 DAT
Experimental: as §1, §2, §3, §4, §5, §6, §7

Stellaria media = assay: Greenhouse postemergence herbicidal activity on STEME, 20 DAT; conditions: Stellaria media, post-emergence, 480 h, STEME, postemergence, 20 DAT, read-out: % activity, solo bromoxynil
Experimental: as §1, §2, §3, §4, §5, §6, §7

Sinapis arvensis = assay: Greenhouse postemergence herbicidal activity on SINAR, 20 DAT; conditions: Mutarda arvensis, post-emergence, 480 h, read-out: % activity, solo bromoxynil
Experimental: as §1, §2, §3, §4, §5, §6, §7

Kochia scoparia = assay: Greenhouse postemergence herbicidal activity on KCHSC, 20 DAT
Experimental: as §1, §2, §3, §4, §5, §6, §7

Galium aparine = assay: Greenhouse postemergence herbicidal activity on GALAP, 20 DAT
Experimental: as §1, §2, §3, §4, §5, §6, §7

Amaranthus palmeri = assay: Greenhouse postemergence herbicidal activity on AMAPA, 20 DAT; conditions: Amaranthus palmeri, post-emergence, 480 h
Experimental: as §1, §2, §3, §4, §5, §6, §7

Polygonum convolvulus = assay: Greenhouse postemergence herbicidal activity on POLCO, 20 DAT; conditions: POLCO, postemergence
Experimental: as §1, §2, §3, §4, §5, §6, §7

`N#Cc1cc(Br)c(O)c(Br)c1` [bromoxynil] gave an inhibition at 10.5 g/ha (Abutilon theoprasti; Abutilon, post-emergence, 480 h, 10.5 gai/ha, 20 DAT, read-out: % activity, solo bromoxynil) of 68%, an inhibition at 62.5 g/ha (Abutilon theoprasti; Abutilon, post-emergence, 480 h, 62.5 gai/ha, 20 DAT, read-out: % activity, solo bromoxynil) of 73% and an inhibition at 125 g/ha (Abutilon theoprasti; Abutilon, post-emergence, 480 h, 125 gai/ha, 20 DAT, read-out: % activity, solo bromoxynil) of 90%. It also gave an inhibition at 250 g/ha (Abutilon theoprasti; Abutilon, post-emergence, 480 h, 250 gai/ha, 20 DAT, read-out: % activity, solo bromoxynil) of 90%, an inhibition at 10.5 g/ha (Amaranthus retroflexus; Amaranthus retroflexus, post-emergence, 480 h, 10.5 gai/ha, 20 DAT, read-out: % activity, solo bromoxynil) of 28% and an inhibition at 125 g/ha (Amaranthus retroflexus; Amaranthus retroflexus, post-emergence, 480 h, 125 gai/ha, 20 DAT, read-out: % activity, solo bromoxynil) of 80%. The inhibition at 250 g/ha (Amaranthus retroflexus; Amaranthus retroflexus, post-emergence, 480 h, 250 gai/ha, 20 DAT, read-out: % activity, solo bromoxynil) was 92%, the inhibition at 10.5 g/ha (Chenopodium album; Chenopodium album, post-emergence, 480 h, 10.5 gai/ha, 20 DAT, read-out: % activity, solo bromoxynil) was 53% and the inhibition at 21 g/ha (Chenopodium album; Chenopodium album, post-emergence, 480 h, 21 gai/ha, 20 DAT, read-out: % activity, solo bromoxynil) was 80%. The inhibition at 62.5 g/ha (Chenopodium album; Chenopodium album, post-emergence, 480 h, 62.5 gai/ha, 20 DAT, read-out: % activity, solo bromoxynil) was 45%, the inhibition at 125 g/ha (Chenopodium album; Chenopodium album, post-emergence, 480 h, 125 gai/ha, 20 DAT, read-out: % activity, solo bromoxynil) was 85% and the inhibition at 250 g/ha (Chenopodium album; Chenopodium album, post-emergence, 480 h, 250 gai/ha, 20 DAT, read-out: % activity, solo bromoxynil) was 95%. The inhibition at 10.5 g/ha (Ipomoea hederacea; Ipomoea hederacea, post-emergence, 480 h, 10.5 gai/ha, 20 DAT, read-out: % activity, solo bromoxynil) was 65%, the inhibition at 21 g/ha (Ipomoea hederacea; Ipomoea hederacea, post-emergence, 480 h, 21 gai/ha, 20 DAT, read-out: % activity, solo bromoxynil) was 65% and the inhibition at 125 g/ha (Ipomoea hederacea; Ipomoea hederacea, post-emergence, 480 h, 125 gai/ha, 20 DAT, read-out: % activity, solo bromoxynil) was 72%. It also gave an inhibition at 62.5 g/ha (Stellaria media; 62.5 gai/ha) of 0%, an inhibition at 125 g/ha (Stellaria media; 125 gai/ha) of 0% and an inhibition at 250 g/ha (Stellaria media; 250 gai/ha) of 0%. The inhibition at 62.5 g/ha (Sinapis arvensis; 62.5 gai/ha) was 70%, the inhibition at 250 g/ha (Sinapis arvensis; 250 gai/ha) was 95% and the inhibition at 62.5 g/ha (Kochia scoparia; Bassia scoparia, post-emergence, 480 h, 62.5 gai/ha, 20 DAT, read-out: % activity, solo bromoxynil) was 50%. The inhibition at 62.5 g/ha (Galium aparine; Galium aparine, post-emergence, 480 h, 62.5 gai/ha, 20 DAT, read-out: % activity, solo bromoxynil) was 89%, the inhibition at 125 g/ha (Galium aparine; Galium aparine, post-emergence, 480 h, 125 gai/ha, 20 DAT, read-out: % activity, solo bromoxynil) was 70% and the inhibition at 10.5 g/ha (Amaranthus palmeri; 10.5 gai/ha, read-out: % activity, solo bromoxynil) was 58%. The inhibition at 62.5 g/ha (Amaranthus palmeri; 62.5 gai/ha, read-out: % activity, solo bromoxynil) was 83%.
With `Cc1c(C(=O)c2cnn(C)c2O)ccc(S(C)(=O)=O)c1C1=NOCC1` [topramezone] the “% activity, solo application topramezone” value (Abutilon theoprasti; 6.25 gai/ha) was 93%, the “% activity, solo application topramezone” value (Polygonum convolvulus; 6.25 gai/ha) was 25% and the “% activity, solo application topramezone” value (Polygonum convolvulus; 12.5 gai/ha) was 25%. For the same compound, the “% activity, solo application topramezone” value (Polygonum convolvulus; 25 gai/ha) was 68%, the “% activity, solo application topramezone” value (Amaranthus retroflexus; 25 gai/ha) was 98% and the “% activity, solo application topramezone” value (Chenopodium album; 6.25 gai/ha) was 30%. The “% activity, solo application topramezone” value (Chenopodium album; 12.5 gai/ha) was 55%, the “% activity, solo application topramezone” value (Chenopodium album; 25 gai/ha) was 55% and the “% activity, solo application topramezone” value (Chenopodium album; 50 gai/ha) was 73%. For the same compound, the “% activity, solo application topramezone” value (Ipomoea hederacea; 6.25 gai/ha) was 23%, the “% activity, solo application topramezone” value (Ipomoea hederacea; 12.5 gai/ha) was 55% and the “% activity, solo application topramezone” value (Ipomoea hederacea; 25 gai/ha) was 75%. For the same compound, the “% activity, solo application topramezone” value (Ipomoea hederacea; 50 gai/ha) was 88%, the “% activity, solo application topramezone” value (Kochia scoparia; 6.25 gai/ha) was 20% and the “% activity, solo application topramezone” value (Kochia scoparia; 12.5 gai/ha) was 43%. The “% activity, solo application topramezone” value (Kochia scoparia; 25 gai/ha) was 75%, the “% activity, solo application topramezone” value (Kochia scoparia; 50 gai/ha) was 90% and the “% activity, solo application topramezone” value (Galium aparine; 6.25 gai/ha) was 70%. The “% activity, solo application topramezone” value (Galium aparine; 12.5 gai/ha) was 75%, the “% activity, solo application topramezone” value (Galium aparine; 25 gai/ha) was 70% and the “% activity, solo application topramezone” value (Galium aparine; 50 gai/ha) was 85%.
`COCC(C)N(C(=O)CCl)c1c(C)csc1C` (stereo not shown) [DMTA, Dimethenamid] was tested, and the inhibition at 175 g/ha (Abutilon theoprasti; Abutilon, post-emergence, 480 h, 175 gai/ha, 20 DAT, read-out: % activity, solo DMTA) was 0%, the inhibition at 350 g/ha (Abutilon theoprasti; Abutilon, post-emergence, 480 h, 350 gai/ha, 20 DAT, read-out: % activity, solo DMTA) was 0% and the inhibition at 175 g/ha (Amaranthus retroflexus; Amaranthus retroflexus, post-emergence, 480 h, 175 gai/ha, 20 DAT, read-out: % activity, solo DMTA) was 35%. The inhibition at 350 g/ha (Amaranthus retroflexus; Amaranthus retroflexus, post-emergence, 480 h, 350 gai/ha, 20 DAT, read-out: % activity, solo DMTA) was 45%, the inhibition at 350 g/ha (Chenopodium album; Chenopodium album, post-emergence, 480 h, 350 gai/ha, 20 DAT, read-out: % activity, solo DMTA) was 28% and the “% activity, solo DMTA” value (Kochia scoparia; 350 gai/ha, 20 DAT) was 5%. It also gave an inhibition at 175 g/ha (Kochia scoparia; Bassia scoparia, post-emergence, 480 h, 175 gai/ha, 20 DAT, read-out: % activity, solo DMTA) of 0%, an inhibition at 175 g/ha (Amaranthus palmeri; 175 gai/ha, read-out: % activity, solo DMTA) of 10% and an inhibition at 350 g/ha (Amaranthus palmeri; 350 gai/ha, read-out: % activity, solo DMTA) of 20%.
